Results: the supplement of paper PMC8671470

Tested on: MOLM-13
Conditions: 72 h
Outline: (§1)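 Each of fifteen myeloid leukaemia cell lines was seeded in RPMI 1640 at a density titrated to its linear growth range. The cells were incubated for 72 h at 37 °C and 5% CO2 with compounds at five tenfold doses from 1 to 10,000 nM, in duplicate. After ATP luminescence was normalised to vehicle and to a positive control at 10 µM, four-parameter log-logistic curves were fitted. These curves gave the IC50.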

Structure (SMILES)	IC50 (cell viability)
C[C@H]1c2cccc(O)c2C(=O)C2C(=O)[C@]3(O)C(=O)C(C(N)=O)C(=O)[C@@H](N(C)C)[C@@H]3[C@@H](O)[C@@H]21 (some centres undefined) [Doxycycline]	> 10 µM

Tested on: HEL
Conditions: 72 h
Outline: as §1

Structure (SMILES)	IC50 (cell viability)
Cc1c(Cl)cccc1S(=O)(=O)Nc1nc(CC(=O)N2CCN(C)CC2)cs1 [BVT-2733]	> 10 µM
CCc1oc2ccccc2c1C(=O)c1cc(Br)c(O)c(Br)c1 [Benzbromarone]	> 10 µM
CCOC(=O)c1sc(NC(=O)c2ccco2)c(SC#N)c1C [CBR-5884]	> 10 µM
O=C(/C=C/c1ccc(O)c(O)c1)OCCc1ccccc1 [Caffeic acid phenethyl ester]	4.18 µM
CCCCCOC(=O)Nc1nc(=O)n([C@@H]2O[C@H](C)[C@@H](O)[C@H]2O)cc1F [Capecitabine]	> 10 µM
Cc1ccc(-c2cc(C(F)(F)F)nn2-c2ccc(S(N)(=O)=O)cc2)cc1 [Celecoxib]	> 10 µM
O=c1c(-c2ccc(O)cc2)coc2cc(O[C@@H]3O[C@H](CO)[C@@H](O)[C@H](O)[C@H]3O)ccc12 [Daidzin]	> 10 µM
CCN(CC)C(=S)SSC(=S)N(CC)CC [Disulfiram]	> 10 µM
c1cc(-c2cnn3cc(-c4ccc(OCCN5CCCCC5)cc4)cnc23)ccn1 [Dorsomorphin]	> 10 µM
C[C@H]1c2cccc(O)c2C(=O)C2C(=O)[C@]3(O)C(=O)C(C(N)=O)C(=O)[C@@H](N(C)C)[C@@H]3[C@@H](O)[C@@H]21 (some centres undefined) [Doxycycline]	> 10 µM

Tested on: HL-60
Conditions: 72 h
Outline: as §1

Structure (SMILES)	IC50 (cell viability)
Cc1c(Cl)cccc1S(=O)(=O)Nc1nc(CC(=O)N2CCN(C)CC2)cs1 [BVT-2733]	> 10 µM
CCc1oc2ccccc2c1C(=O)c1cc(Br)c(O)c(Br)c1 [Benzbromarone]	> 10 µM
CCOC(=O)c1sc(NC(=O)c2ccco2)c(SC#N)c1C [CBR-5884]	> 10 µM
O=C(/C=C/c1ccc(O)c(O)c1)OCCc1ccccc1 [Caffeic acid phenethyl ester]	1.07 µM
CCCCCOC(=O)Nc1nc(=O)n([C@@H]2O[C@H](C)[C@@H](O)[C@H]2O)cc1F [Capecitabine]	> 10 µM
Cc1ccc(-c2cc(C(F)(F)F)nn2-c2ccc(S(N)(=O)=O)cc2)cc1 [Celecoxib]	> 10 µM
O=c1c(-c2ccc(O)cc2)coc2cc(O[C@@H]3O[C@H](CO)[C@@H](O)[C@H](O)[C@H]3O)ccc12 [Daidzin]	> 10 µM
CCN(CC)C(=S)SSC(=S)N(CC)CC [Disulfiram]	> 10 µM
c1cc(-c2cnn3cc(-c4ccc(OCCN5CCCCC5)cc4)cnc23)ccn1 [Dorsomorphin]	> 10 µM
C[C@H]1c2cccc(O)c2C(=O)C2C(=O)[C@]3(O)C(=O)C(C(N)=O)C(=O)[C@@H](N(C)C)[C@@H]3[C@@H](O)[C@@H]21 (some centres undefined) [Doxycycline]	> 10 µM

Tested on: THP-1
Conditions: 72 h
Outline: as §1

Structure (SMILES)	IC50 (cell viability)
Cc1c(Cl)cccc1S(=O)(=O)Nc1nc(CC(=O)N2CCN(C)CC2)cs1 [BVT-2733]	> 10 µM
CCc1oc2ccccc2c1C(=O)c1cc(Br)c(O)c(Br)c1 [Benzbromarone]	> 10 µM
CCOC(=O)c1sc(NC(=O)c2ccco2)c(SC#N)c1C [CBR-5884]	> 10 µM
O=C(/C=C/c1ccc(O)c(O)c1)OCCc1ccccc1 [Caffeic acid phenethyl ester]	6.98 µM
CCCCCOC(=O)Nc1nc(=O)n([C@@H]2O[C@H](C)[C@@H](O)[C@H]2O)cc1F [Capecitabine]	> 10 µM
Cc1ccc(-c2cc(C(F)(F)F)nn2-c2ccc(S(N)(=O)=O)cc2)cc1 [Celecoxib]	> 10 µM
O=c1c(-c2ccc(O)cc2)coc2cc(O[C@@H]3O[C@H](CO)[C@@H](O)[C@H](O)[C@H]3O)ccc12 [Daidzin]	> 10 µM
CCN(CC)C(=S)SSC(=S)N(CC)CC [Disulfiram]	0.0708 µM
c1cc(-c2cnn3cc(-c4ccc(OCCN5CCCCC5)cc4)cnc23)ccn1 [Dorsomorphin]	> 10 µM
C[C@H]1c2cccc(O)c2C(=O)C2C(=O)[C@]3(O)C(=O)C(C(N)=O)C(=O)[C@@H](N(C)C)[C@@H]3[C@@H](O)[C@@H]21 (some centres undefined) [Doxycycline]	> 10 µM

Tested on: KCL-22
Conditions: 72 h
Outline: as §1

Structure (SMILES)	IC50 (cell viability)
Cc1c(Cl)cccc1S(=O)(=O)Nc1nc(CC(=O)N2CCN(C)CC2)cs1 [BVT-2733]	> 10 µM
CCc1oc2ccccc2c1C(=O)c1cc(Br)c(O)c(Br)c1 [Benzbromarone]	> 10 µM
CCOC(=O)c1sc(NC(=O)c2ccco2)c(SC#N)c1C [CBR-5884]	> 10 µM
O=C(/C=C/c1ccc(O)c(O)c1)OCCc1ccccc1 [Caffeic acid phenethyl ester]	2.21 µM
CCCCCOC(=O)Nc1nc(=O)n([C@@H]2O[C@H](C)[C@@H](O)[C@H]2O)cc1F [Capecitabine]	> 10 µM
Cc1ccc(-c2cc(C(F)(F)F)nn2-c2ccc(S(N)(=O)=O)cc2)cc1 [Celecoxib]	> 10 µM
O=c1c(-c2ccc(O)cc2)coc2cc(O[C@@H]3O[C@H](CO)[C@@H](O)[C@H](O)[C@H]3O)ccc12 [Daidzin]	> 10 µM
CCN(CC)C(=S)SSC(=S)N(CC)CC [Disulfiram]	> 10 µM
c1cc(-c2cnn3cc(-c4ccc(OCCN5CCCCC5)cc4)cnc23)ccn1 [Dorsomorphin]	6.79 µM
C[C@H]1c2cccc(O)c2C(=O)C2C(=O)[C@]3(O)C(=O)C(C(N)=O)C(=O)[C@@H](N(C)C)[C@@H]3[C@@H](O)[C@@H]21 (some centres undefined) [Doxycycline]	8.54 µM

Tested on: NOMO-1
Conditions: 72 h
Outline: as §1

Structure (SMILES)	IC50 (cell viability)
Cc1c(Cl)cccc1S(=O)(=O)Nc1nc(CC(=O)N2CCN(C)CC2)cs1 [BVT-2733]	> 10 µM
CCc1oc2ccccc2c1C(=O)c1cc(Br)c(O)c(Br)c1 [Benzbromarone]	> 10 µM
CCOC(=O)c1sc(NC(=O)c2ccco2)c(SC#N)c1C [CBR-5884]	> 10 µM
O=C(/C=C/c1ccc(O)c(O)c1)OCCc1ccccc1 [Caffeic acid phenethyl ester]	> 10 µM
CCCCCOC(=O)Nc1nc(=O)n([C@@H]2O[C@H](C)[C@@H](O)[C@H]2O)cc1F [Capecitabine]	> 10 µM
Cc1ccc(-c2cc(C(F)(F)F)nn2-c2ccc(S(N)(=O)=O)cc2)cc1 [Celecoxib]	> 10 µM
O=c1c(-c2ccc(O)cc2)coc2cc(O[C@@H]3O[C@H](CO)[C@@H](O)[C@H](O)[C@H]3O)ccc12 [Daidzin]	> 10 µM
CCN(CC)C(=S)SSC(=S)N(CC)CC [Disulfiram]	> 10 µM
c1cc(-c2cnn3cc(-c4ccc(OCCN5CCCCC5)cc4)cnc23)ccn1 [Dorsomorphin]	6.43 µM
C[C@H]1c2cccc(O)c2C(=O)C2C(=O)[C@]3(O)C(=O)C(C(N)=O)C(=O)[C@@H](N(C)C)[C@@H]3[C@@H](O)[C@@H]21 (some centres undefined) [Doxycycline]	> 10 µM

Tested on: ML-2
Conditions: 72 h
Outline: as §1

Structure (SMILES)	IC50 (cell viability)
Cc1c(Cl)cccc1S(=O)(=O)Nc1nc(CC(=O)N2CCN(C)CC2)cs1 [BVT-2733]	> 10 µM
CCc1oc2ccccc2c1C(=O)c1cc(Br)c(O)c(Br)c1 [Benzbromarone]	> 10 µM
CCOC(=O)c1sc(NC(=O)c2ccco2)c(SC#N)c1C [CBR-5884]	> 10 µM
O=C(/C=C/c1ccc(O)c(O)c1)OCCc1ccccc1 [Caffeic acid phenethyl ester]	1.26 µM
CCCCCOC(=O)Nc1nc(=O)n([C@@H]2O[C@H](C)[C@@H](O)[C@H]2O)cc1F [Capecitabine]	> 10 µM
Cc1ccc(-c2cc(C(F)(F)F)nn2-c2ccc(S(N)(=O)=O)cc2)cc1 [Celecoxib]	> 10 µM
O=c1c(-c2ccc(O)cc2)coc2cc(O[C@@H]3O[C@H](CO)[C@@H](O)[C@H](O)[C@H]3O)ccc12 [Daidzin]	> 10 µM
CCN(CC)C(=S)SSC(=S)N(CC)CC [Disulfiram]	0.264 µM
